The values below come from publication PMC13335808 (Advanced Science, 2026).

Broadly, the IC50 is the concentration needed to halve the response being measured.

The target in this test is LRRK2 G2019S (Homo sapiens, UniProt Q5S007, G2019S). The test can be described thus: ADP-Glo Kinase Assay, LRRK2 G2019S. It is filed as biochemical. Particulars: 120 min kinase reaction at 25 °C, 10 concentrations, read-out: IC50 (LRRK2 G2019S_ADP-Glo Assay). For orientation: In ADP-Glo the light output rises with the ADP produced.
Chain of LRRK2 G2019S (Q5S007 whole entry G2019S): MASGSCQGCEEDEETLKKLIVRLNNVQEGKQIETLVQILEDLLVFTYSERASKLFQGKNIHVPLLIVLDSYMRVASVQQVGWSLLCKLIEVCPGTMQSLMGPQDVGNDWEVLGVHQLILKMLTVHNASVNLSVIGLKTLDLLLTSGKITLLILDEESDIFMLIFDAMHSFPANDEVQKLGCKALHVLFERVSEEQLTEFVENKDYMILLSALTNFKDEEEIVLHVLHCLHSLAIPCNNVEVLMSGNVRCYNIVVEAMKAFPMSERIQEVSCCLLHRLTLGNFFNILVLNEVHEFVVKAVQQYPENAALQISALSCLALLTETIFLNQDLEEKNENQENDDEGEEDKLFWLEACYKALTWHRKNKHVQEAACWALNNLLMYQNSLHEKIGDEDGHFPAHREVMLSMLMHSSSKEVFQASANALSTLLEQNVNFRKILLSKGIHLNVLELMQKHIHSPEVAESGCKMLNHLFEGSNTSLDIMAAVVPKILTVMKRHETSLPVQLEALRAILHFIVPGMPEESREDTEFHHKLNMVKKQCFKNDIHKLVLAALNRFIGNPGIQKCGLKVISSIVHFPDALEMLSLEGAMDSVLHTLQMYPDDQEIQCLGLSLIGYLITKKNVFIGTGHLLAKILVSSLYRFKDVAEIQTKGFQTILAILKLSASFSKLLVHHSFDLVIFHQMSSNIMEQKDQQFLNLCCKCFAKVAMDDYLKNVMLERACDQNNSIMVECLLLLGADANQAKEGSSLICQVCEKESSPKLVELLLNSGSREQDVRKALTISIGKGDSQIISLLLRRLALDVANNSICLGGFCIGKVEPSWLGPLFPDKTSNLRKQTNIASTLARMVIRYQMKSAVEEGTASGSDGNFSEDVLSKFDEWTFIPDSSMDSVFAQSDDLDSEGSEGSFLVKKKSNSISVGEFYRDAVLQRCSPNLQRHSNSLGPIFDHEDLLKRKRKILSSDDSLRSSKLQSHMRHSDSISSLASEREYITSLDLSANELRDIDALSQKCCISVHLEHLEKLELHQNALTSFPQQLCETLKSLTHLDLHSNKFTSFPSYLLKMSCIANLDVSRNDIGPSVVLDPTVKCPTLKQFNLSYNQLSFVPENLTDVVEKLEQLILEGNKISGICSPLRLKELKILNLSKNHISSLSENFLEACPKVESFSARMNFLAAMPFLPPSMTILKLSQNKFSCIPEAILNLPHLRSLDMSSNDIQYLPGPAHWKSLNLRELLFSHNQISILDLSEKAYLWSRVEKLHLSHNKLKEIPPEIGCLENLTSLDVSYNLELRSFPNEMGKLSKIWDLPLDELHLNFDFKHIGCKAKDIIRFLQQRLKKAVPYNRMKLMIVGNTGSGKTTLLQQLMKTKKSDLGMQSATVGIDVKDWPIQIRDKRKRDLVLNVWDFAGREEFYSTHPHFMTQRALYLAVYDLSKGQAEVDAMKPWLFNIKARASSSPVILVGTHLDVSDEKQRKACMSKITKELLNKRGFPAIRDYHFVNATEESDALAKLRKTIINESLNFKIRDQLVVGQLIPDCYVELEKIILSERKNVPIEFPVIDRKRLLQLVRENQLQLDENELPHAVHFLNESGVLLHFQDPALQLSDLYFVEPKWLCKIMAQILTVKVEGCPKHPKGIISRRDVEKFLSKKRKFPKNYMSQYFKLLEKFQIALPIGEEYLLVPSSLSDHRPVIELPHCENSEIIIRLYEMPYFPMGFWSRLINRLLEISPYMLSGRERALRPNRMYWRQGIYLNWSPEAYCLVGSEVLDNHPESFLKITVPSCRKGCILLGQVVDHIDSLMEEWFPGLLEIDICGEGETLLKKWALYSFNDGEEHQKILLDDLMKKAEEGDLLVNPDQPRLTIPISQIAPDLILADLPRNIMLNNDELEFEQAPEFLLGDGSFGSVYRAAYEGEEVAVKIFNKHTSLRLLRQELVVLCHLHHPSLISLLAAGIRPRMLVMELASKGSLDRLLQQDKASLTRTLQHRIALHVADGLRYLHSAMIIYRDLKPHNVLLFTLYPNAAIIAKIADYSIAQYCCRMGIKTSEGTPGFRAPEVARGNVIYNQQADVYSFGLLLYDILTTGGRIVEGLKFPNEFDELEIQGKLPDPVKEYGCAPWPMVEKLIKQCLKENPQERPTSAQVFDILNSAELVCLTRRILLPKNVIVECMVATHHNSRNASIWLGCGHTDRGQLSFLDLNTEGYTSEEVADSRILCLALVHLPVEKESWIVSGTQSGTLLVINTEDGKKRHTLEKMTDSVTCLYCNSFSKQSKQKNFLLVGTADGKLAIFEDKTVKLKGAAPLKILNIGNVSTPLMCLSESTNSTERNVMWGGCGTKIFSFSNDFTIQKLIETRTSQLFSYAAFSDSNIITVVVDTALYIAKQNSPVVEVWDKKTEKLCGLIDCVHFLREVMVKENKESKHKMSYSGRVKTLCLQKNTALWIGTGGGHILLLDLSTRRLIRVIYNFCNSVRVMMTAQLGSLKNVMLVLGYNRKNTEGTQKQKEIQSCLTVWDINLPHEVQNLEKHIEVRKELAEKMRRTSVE

Protocol: Kinase inhibition assays were performed using the ADP-Glo^TM Kinase Assay (Promega) in 384-well format. A 2× ATP/substrate solution and a 2× kinase solution was prepared in kinase reaction buffer. Compounds were dispensed into the assay plates (100 nL per well) using an Echo 655 acoustic dispenser. Subsequently, 5 μL of the 2× kinase solutions were added to each well, followed by centrifugation at 1000 rpm for 1 min and incubation at 25 °C for 10 min. The kinase reactions were initiated by the addition of 5 μL of the 2× ATP/substrate solution.
Following the kinase reaction, 5 μL of ADP-Glo reagent was added to each well. Plates were centrifuged at 1000 rpm for 1 min and incubated at 25 °C for 60 min to terminate the reaction and deplete unconsumed ATP. […] Luminescence signals were recorded using a BMG plate reader.
The percentage inhibition (inhibition%) was calculated as: […]
IC50 values were determined by nonlinear regression of the inhibition% versus the logarithm of compound concentrations using a four-parameter sigmoidal dose–response model (variable slope) in GraphPad Prism 10.0. […]
Ten different concentrations were tested for each compound. […] Residual kinase activity was determined based on luminescence readouts, and the data were normalized to vehicle (100% activity) and complete inhibition controls (0% activity). […]

Regarding `COc1cc(C(=O)N2CCC(N3CCN(C)CC3)CC2)ccc1Nc1ncc2c(n1)N(C)c1ccccc1C(=O)N2C` [LRRK2-IN-1], the IC50 was 5.25 nM.
